Results on 1 compound are retold here after publication PMC12535076, “Neurotherapeutic effects of Vutiglabridin as a Paraoxonase-2 modulator in preclinical models of Parkinson’s disease” (Molecular Neurodegeneration, 2025).

Where “and” joins values, the source holds several entries; their conditions need not be identical. Equal entries are not always repeated.

The test system of data set [1] is primary cultured astrocytes. Kind of data set: Intracellular H2O2 (oROS-G sensor) in 6-OHDA-treated astrocytes. The data set is classed as cell-based. On the procedure: Intracellular H2O2 levels in astrocytes were measured using a genetically encoded oROS-G plasmid, which is highly sensitive and specific for H2O2 with rapid on-and-off kinetics. The plasmid was generously provided by Dr. Andre Berndt and was cloned under the GFAP104 promoter. Transfection into primary cultured hippocampal astrocytes was carried out using the NeoNTM transfection system (Invitrogen). Astrocytes were seeded into 96-well black plates (ibidi, USA) and treated with 6-OHDA (10 µM) in the presence of 1, 10, and 30 µM of Vuti. Fluorescence changes were monitored using a Nikon A1 confocal microscope over a period of 21 h for live cell imaging. The fluorescence intensity for each region of interest (ROI) was analyzed using Nikon software, and the data were normalized to control values for the IC50. The IC50 value for Vuti was determined using GraphPad Prism software.

For data set [2], the system named is panel of a total of 225 mammalian proteins. Kind of data set: In vitro safety (off-target) screening panel. Conditions: 225 targets: ion channels, GPCR, nuclear receptors, kinases, enzymes, transporters; data not shown. On the procedure:
The overall safety of Vuti has been already established through human phase 1 clinical trial (NCT04732988, NCT04733001, NCT04703764). However, for its potential repositioning as a central nervous system (CNS)-targeting drug candidate, we performed a comprehensive neurotoxicity assessment of Vuti through in vitro safety screening. Interactions of Vuti were tested against an extensive panel of a total of 225 mammalian proteins, including ion channels, G-protein coupled receptors (GPCR), nuclear receptors, kinases, non-kinase enzymes, and drug transporters, cardiac function, and drug-drug interactions. Additionally, these also examined whether Vuti interacted with reported direct targets of glabridin [37], such as estrogen receptor, peroxisome proliferator-activated receptor gamma (PPARγ), and cyclooxygenase 2 (COX-2).

Data set [3] concerns the target T1, recombinant human PON2 (rePON2) (Homo sapiens, UniProt Q15165).
T1 construct: made in house; host or cells: E. coli BL21 (DE3), pET21b
Kind of data set: Mass spectrometry-based binding assay. Conditions: 10 nM Vuti incubated with rePON2 0-500 nM for 30 min, LC-MS/MS; read-out: dissociation constant (Kd). An excerpt:
The codon-optimization of HsPON2 was for Escherichia coli system and synthesized according to the full-length open reading frame (GenBank accession No. AAC41995.1) from National Center for Biotechnology Information (NCBI; http://www.ncbi.nlm.nih.gov). The HsPON2 gene was amplified by a standard PCR method with a primer set (Forward; 5’-[…]-3’, Reverse; 5’-[…]-3’) and inserted into an expression vector (pET21b; New England Biolabs, USA) using NdeI and XhoI restriction enzyme sites (underlined). […] The recombinant construct was transformed into E. coli BL21 (DE3) competent cells. The transformed cells were activated overnight and transferred to 1 L of LB broth (BD bioscience, USA) with 100 µg/mL ampicillin (Duchefa Biochemie, The Netherlands) containing 0.1% glucose, and then incubated at 37 ℃ and 200 rpm in incubator (Vision Scientific, Korea) until reaching the optical density of 0.6–0.8 at 600 nm (OD600). […] The eluted HsPON2 protein was analyzed by a 12% SDS-PAGE and concentrated up to approximately 1 mL by 10 kDa filter-size amicon (Merck Millipore, USA). […]
The method followed the concept of previously established protocol. […] The supernatant, which now contains rePON2-bound Vuti, was collected, dried, and re-suspended in acetonitrile, and the drug quantification was performed via LC-MS/MS analysis.

For orientation: IC50 means the midpoint of a concentration-inhibition curve. The term Kd denotes the constant that tells how readily two partners part at equilibrium.

T1 sequence (Q15165 1-354 isoform Q15165-1): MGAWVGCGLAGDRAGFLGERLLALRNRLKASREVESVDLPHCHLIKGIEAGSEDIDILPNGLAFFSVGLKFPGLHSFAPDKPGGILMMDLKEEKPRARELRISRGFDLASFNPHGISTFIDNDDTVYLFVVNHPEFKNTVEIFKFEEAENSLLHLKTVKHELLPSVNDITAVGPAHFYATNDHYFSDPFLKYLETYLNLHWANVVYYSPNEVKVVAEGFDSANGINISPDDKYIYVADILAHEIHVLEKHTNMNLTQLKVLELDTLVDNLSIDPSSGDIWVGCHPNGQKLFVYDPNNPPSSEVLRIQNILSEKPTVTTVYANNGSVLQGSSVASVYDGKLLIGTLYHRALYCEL

Take `CCOc1ccc(C2COc3c(ccc4c3CCC(C)(C)O4)C2)c(O)c1` (stereo not shown) [Vuti, Vutiglabridin]: the “ROS levels in 6-OHDA-treated astrocytes” value in data set [1] (30 µM Vuti) was “significantly reduced ROS levels”. Also, the concentration for half-maximal inhibition (IC50) in data set [1] (Astrocyte, 6-OHDA 10 µM treated primary cultured astrocytes, Vuti 1, 10, 30 µM, read-out: normalized IC50 (ROS, oROS-G sensor imaging)) was determined as 21000 nM. In addition, the off-target interactions entry in data set [2] is given as “no significant unexpected targets”. Also, the dissociation constant (Kd) in data set [3] is 78.9 nM and 78 nM.
